Here are results for 10 compounds from ChEMBL document CHEMBL1201862, “PubChem BioAssay data set” (2004).

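A five-concentration, 48-hour dose response in 96-well plates underlies each endpoint, interpolated linearly between surrounding concentrations. GI50 is the concentration that inhibits growth by half.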 Activity calls are given as the source filed them. Rule as the data show it: active = GI50 up to about 1.1 µM and inactive = higher.

Holding throughout (assay): NCI anticancer screen, dose series, 48 h
For test [1], the system named is RPMI-8226.
Test [2] has as its system SF-539.
The test system of test [3] is Hs-578T.
In test [4] the test system is SNB-19.
The subject of test [5] is 786-0.
Test [6] concerns ACHN.
Test [7] relates to MOLT-4.
Test [8] has as its system U-251.
Test [9] concerns SF-295.
The test system of test [10] is SK-OV-3.
In test [11] the test system is HL-60.
In test [12] the test system is HCT-116.
In test [13] the test system is K562.
Test [14] has as its system RXF 393.
For test [15], the system named is SNB-75.
The subject of test [16] is UO-31.
The test system of test [17] is TK-10.
The test system of test [18] is CCRF-CEM.
Test [19] relates to HT-29.
For test [20], the system named is CAKI-1.

In the case of `COc1ccc(C(=O)/C=C/c2ccc(O)c(O)c2)c(OC)c1`, the GI50 in test [1] was 0.7 µM (active); in [2] it was 0.834 µM (active); in test [3], 2.19 µM (inactive); in [4], 2.96 µM (inactive); in test [5], 5.21 µM (inactive); in test [6] it was 10.9 µM (inactive). For the same compound, the GI50 in [7] is 2.79 µM (inactive); in test [8], 1.7 µM (inactive); in test [9], 3.66 µM (inactive); in [10] it was 5.15 µM (inactive); in test [11], 0.377 µM (active); in [12], 0.638 µM (active). Also, the GI50 in test [13] was 0.442 µM (active); in test [14], 8.18 µM (inactive); in test [15], 1.91 µM (inactive); in test [16], 9.33 µM (inactive); in [17] it was 6.14 µM (inactive); in test [18], 0.508 µM (active). Moreover, the figures for the GI50 in test [19] and in [20] were 7.76 µM (inactive) and 6.27 µM (inactive), respectively.
For the compound `O=C1/C(=C/c2ccc(O)cc2)CCc2ccccc21`, the GI50 is 6.5 µM (inactive) in test [1]; 18 µM (inactive) in test [2]; 23 µM (inactive) in test [3]; 22.4 µM (inactive) in [4]; 16.7 µM (inactive) in [5]; 21.1 µM (inactive) in test [6]. Moreover, the GI50 in test [7] is 2.82 µM (inactive); in test [8] it was 27.6 µM (inactive); in test [9] it was 28 µM (inactive); in test [10], > 55.6 µM (inactive); in test [11], 6.14 µM (inactive); in [12], 16.1 µM (inactive). In addition, the GI50 in test [13] is 13.6 µM (inactive); in test [14], 17.1 µM (inactive); in [15] it was 26.9 µM (inactive); in test [16], 19.6 µM (inactive); in [17], 51.5 µM (inactive); in test [18] it was 1.7 µM (inactive). Also, the GI50 was 21.5 µM (inactive) in test [19] and 31.3 µM (inactive) in test [20].
Consider `Cc1ccc(O)c(C(c2ccc(C(c3cc(C)ccc3O)c3cc(C)ccc3O)cc2)c2cc(C)ccc2O)c1`, for which the GI50 was 1.56 µM (inactive) in test [1]; 1.75 µM (inactive) in test [2]; 2.39 µM (inactive) in [3]; 1.52 µM (inactive) in test [4]; 1.67 µM (inactive) in test [5]; 1.78 µM (inactive) in test [6]. Also, the GI50 in [7] is 2.9 µM (inactive); in test [8], 1.98 µM (inactive); in test [9] it was 2.06 µM (inactive); in test [10], 1.68 µM (inactive); in test [11] it was 2.26 µM (inactive); in test [12], 1.67 µM (inactive). Further, the GI50 was 1.77 µM (inactive) in test [13]; 1.79 µM (inactive) in test [14]; 1.89 µM (inactive) in test [15]; 1.85 µM (inactive) in test [16]; 1.56 µM (inactive) in test [17]; 2.28 µM (inactive) in test [18]. Moreover, the GI50 was 1.87 µM (inactive) in test [19] and 1.56 µM (inactive) in [20].
In the case of `CC1CC[C@@]2(OC1)OC1C[C@H]3[C@@H]4CC[C@H]5CC(OC6OC(CO)C(O)C(OC7OC(CO)C(OC8OC(CO)C(O)C(OC9OC(CO)C(O)C(O)C9O)C8OC8OC(CO)C(O)C(O)C8O)C(O)C7O)C6O)[C@H](O)CC5(C)[C@H]4CCC3(C)C1[C@@H]2C` (stereo not given in full), the GI50 in [1] was 2.55 µM (inactive); in test [2], 1.87 µM (inactive); in test [3], 1.84 µM (inactive); in test [4], 2.2 µM (inactive); in [5], 1.88 µM (inactive); in test [6], 1.9 µM (inactive). The GI50 in test [7] was 5.18 µM (inactive); in test [8] it was 2.7 µM (inactive); in [9], 2.99 µM (inactive); in test [10], 6.95 µM (inactive); in test [11] it was 2.57 µM (inactive); in [12] it was 5.14 µM (inactive). For the same compound, the GI50 in [13] is 3.37 µM (inactive); in test [14], 1.34 µM (inactive); in test [15], 3.98 µM (inactive); in [16] it was 2 µM (inactive); in test [17], 5.57 µM (inactive); in test [18], 2.08 µM (inactive). Moreover, the GI50 is 3.52 µM (inactive) in test [19] and 4.11 µM (inactive) in test [20].
Take `Clc1nc2c(C#Cc3ccccc3)ncnc2n1C1CCCCO1` (stereo not given): the GI50 was 4.12 µM (inactive) in test [1]; 14.3 µM (inactive) in [2]; 24.7 µM (inactive) in test [3]; 19.6 µM (inactive) in test [4]; 11.6 µM (inactive) in test [5]; 16.1 µM (inactive) in test [6]. The GI50 in test [7] was 17.7 µM (inactive); in test [8], 12.6 µM (inactive); in test [9], 22.6 µM (inactive); in test [10], 27.6 µM (inactive); in test [11], 11.7 µM (inactive); in test [12], 10 µM (inactive). The GI50 was 30.3 µM (inactive) in test [13]; 10.4 µM (inactive) in test [14]; 18.1 µM (inactive) in [15]; 11.9 µM (inactive) in test [16]; 20.5 µM (inactive) in test [17]; 5.15 µM (inactive) in test [18]. Further, the figures for the GI50 in test [19] and in test [20] were 12.4 µM (inactive) and 10 µM (inactive), respectively.
On to `C(=N\Nc1ccc(-c2nc3ccccc3[nH]2)cc1)/c1c(-c2ccc(Cc3ccccc3)cc2)[nH]c2ccccc12`, for which the GI50 in [1] is 3.08 µM (inactive); in test [2] it was 5.74 µM (inactive); in test [3], 2.57 µM (inactive); in test [4], 14.2 µM (inactive); in test [5], 3.3 µM (inactive); in test [6], 11 µM (inactive). Further, the GI50 in [7] was 2.56 µM (inactive); in [8] it was 6.01 µM (inactive); in test [9] it was 2.56 µM (inactive); in test [10], 21.6 µM (inactive); in [11], 7.06 µM (inactive); in test [12] it was 5.01 µM (inactive). Besides, the GI50 was 4.46 µM (inactive) in [13]; 2.29 µM (inactive) in test [14]; 4.47 µM (inactive) in [15]; 10.8 µM (inactive) in test [16]; 21.5 µM (inactive) in test [17]; 5.06 µM (inactive) in test [18]. For the same compound, the GI50 is 3.67 µM (inactive) in test [19] and 14.3 µM (inactive) in test [20].
In the case of `Cc1ccccc1/N=N/c1ccc(/N=N/c2c(O)ccc3cc(S(=O)(=O)O)cc(S(=O)(=O)O)c23)c(C)c1`, the GI50 in test [1], in test [2], in [3], in test [4], in test [5] and in test [6] was > 100 µM (inactive) in each case. In addition, the GI50 in test [7], in test [8], in test [9], in test [10], in [11] and in test [12] was > 100 µM (inactive) throughout. Moreover, the GI50 in test [13], in test [14], in test [15], in test [16], in test [17] and in test [18] was > 100 µM (inactive) in each case. Besides, the GI50 in [19] and in test [20] was > 100 µM (inactive) throughout.
With `O=C1C2CC(Cl)C(SSC3CC4C(=O)N(SC(Cl)(Cl)C(Cl)Cl)C(=O)C4CC3Cl)CC2C(=O)N1SC(Cl)(Cl)C(Cl)Cl` (stereo not given), the GI50 is 1.81 µM (inactive) in test [1]; 2.32 µM (inactive) in test [2]; 2.37 µM (inactive) in test [3]; 3.86 µM (inactive) in test [4]; 1.56 µM (inactive) in [5]; 2.23 µM (inactive) in [6]. In addition, the GI50 in test [7] was 0.192 µM (active); in test [8], 1.4 µM (inactive); in test [9] it was 5.13 µM (inactive); in test [10], 3.39 µM (inactive); in test [11], 0.543 µM (active); in [12], 2.49 µM (inactive). The GI50 in test [13] was 0.979 µM (active); in test [14] it was 1.33 µM (inactive); in [15] it was 2.05 µM (inactive); in test [16] it was 1.94 µM (inactive); in test [17], 2.59 µM (inactive); in test [18] it was 0.249 µM (active). Further, the results for the GI50 in [19] and in test [20] were 1.77 µM (inactive) and 2.11 µM (inactive), respectively.
Consider `CC(C)OC(=O)c1ccc(CCC2=CC(=O)C(Br)=CC2=O)cc1`, for which the GI50 was 7.26 µM (inactive) in [1]; 19.2 µM (inactive) in test [2]; 15.7 µM (inactive) in [3]; 15.3 µM (inactive) in [4]; 16.5 µM (inactive) in test [5]; 14.5 µM (inactive) in test [6]. For the same compound, the GI50 in test [7] was 3.09 µM (inactive); in test [8], 15.6 µM (inactive); in test [9], 19.9 µM (inactive); in test [10], 40.6 µM (inactive); in test [11], 2.16 µM (inactive); in test [12], 16.7 µM (inactive). The GI50 in [13] is 2.84 µM (inactive); in [14] it was 17.1 µM (inactive); in test [15], 16.1 µM (inactive); in [16], 13.8 µM (inactive); in test [17] it was 19.7 µM (inactive); in [18], 0.783 µM (active). Besides, the GI50 in [19] was 16.8 µM (inactive); in [20], 20.6 µM (inactive).
Regarding `Cc1cnc2[nH]c(-c3cccc(F)c3)cc(=O)c2c1`, the GI50 in [1] was 0.0402 µM (active); in [2], 0.0326 µM (active); in [3] it was 0.0121 µM (active); in [4], 0.0546 µM (active); in test [5] it was 0.0384 µM (active); in [6], 0.0664 µM (active). Also, the GI50 in [7] is 0.0531 µM (active); in [8], 0.0405 µM (active); in test [9], 0.0322 µM (active); in test [10] it was 0.0368 µM (active); in [11], 0.0186 µM (active); in test [12] it was 0.034 µM (active). The GI50 in test [13] is 0.0266 µM (active); in test [14] it was 0.0418 µM (active); in test [15] it was 0.0171 µM (active); in [16], 0.0724 µM (active); in [17], 0.161 µM (active); in [18], 0.0353 µM (active). Besides, the GI50 in [19] was 0.0308 µM (active); in [20], 0.0317 µM (active).
